Source: patent publication US12404289B2 (Gilead Sciences, Inc., priority 2020, dated 2025)
Like-named read-outs stand apart in the source and are kept apart here.

Columns and labels:
Type in all cases: cell-based
[1] = system: Recombinant respiratory syncytial virus expressing the firefly luciferase protein (RSV-Fluc); assay: microbe, parasite or virus in culture; conditions: Table 4
[2] = system: Respiratory syncytial virus (RSV) strain A2; assay: Hep-2 RSV2 384-well assay (EC50-HEP2-384); conditions: HEp-2 cells, RSV A2, MOI=4, 4 days, Table 3
SARS-CoV-2 = SARS-CoV-2 antiviral assay (A549-hACE2, Nano luciferase); conditions: A549-hACE2 cells, SARS-CoV2-Nano, MOI 0.025, 48 h, Table 4, read-out: EC50 SARS CoV2
[3] = system: Respiratory syncytial virus (RSV) strain A2; assay: RSV antiviral assay (HEp-2, 96 well); conditions: read-out: EC50 RSV HEP2 96; HEp-2 cells, RSV A2, MOI=4, 4 days, 96 well; Table 3
[4] = system: Respiratory syncytial virus recombinant with luciferase (RSV-Luc5); assay: microbe, parasite or virus in culture; conditions: Table 3
[5] = human respiratory syncytial virus, NHBE, 72 h, read-out: EC50 RSVFluc NHBE 96, NHBE cells, RSV-Fluc, MOI of 0.1, three days, 96 well
[6] = human respiratory syncytial virus, HEp-2, 96 h
[7] = read-out: EC50 RSVFluc NHBE 96, NHBE cells, RSV-Fluc, MOI of 0.1, three days, 96 well
[8] = Severe acute respiratory syndrome coronavirus 2, 48 h
[9] = human respiratory syncytial virus, HEp-2, 72 h, read-out: EC50 RSVFluc-Hep2 384, HEp-2 cells, RSV-Luc5, MOI=0.5, 3 days, 384 well
[10] = read-out: EC50 RSVFluc-Hep2 384, HEp-2 cells, RSV-Luc5, MOI=0.5, 3 days, 384 well

CCC(=O)O[C@H]1[C@@H](OC(=O)CC)[C@](C#N)(c2ccc3c(N)ncnn23)O[C@@H]1COP(=O)(N[C@@H](C)C(=O)OC1CCC1)Oc1ccc(C(C)(C)C)cc1 (single isomer, unassigned) [Example 32a]
EC50 [1, 5]: 16.7 nM | EC50 [2, 6]: 25.4 nM | EC50 (SARS-CoV-2): 157 nM

CCC(=O)O[C@H]1[C@@H](OC(=O)CC)[C@](C#N)(c2ccc3c(N)ncnn23)O[C@@H]1COP(=O)(N[C@@H](C)C(=O)OC1CCC1)Oc1ccc(C(C)(C)C)cc1 (single isomer, unassigned) [Example 32b]
EC50 [1, 7]: 10.7 nM | EC50 [2]: 30 nM | EC50 (SARS-CoV-2): 59.7 nM

CC(=O)O[C@H]1[C@@H](OC(C)=O)[C@](C#N)(c2ccc3c(N)ncnn23)O[C@@H]1COP(=O)(N[C@@H](C)C(=O)OC1CCC1)Oc1ccc(C(C)(C)C)cc1 (single isomer, unassigned) [Example 33a]
EC50 [1, 5]: 9.06 nM | EC50 [2, 6]: 22.7 nM | EC50 (SARS-CoV-2; [8]): 134 nM

CC(=O)O[C@H]1[C@@H](OC(C)=O)[C@](C#N)(c2ccc3c(N)ncnn23)O[C@@H]1COP(=O)(N[C@@H](C)C(=O)OC1CCC1)Oc1ccc(C(C)(C)C)cc1 (single isomer, unassigned) [Example 33b]
EC50 [1, 7]: 12.2 nM | EC50 [2]: 27.2 nM | EC50 (SARS-CoV-2): 231 nM

CCOC(=O)[C@H](C)NP(=O)(OC[C@H]1O[C@@](C#N)(c2ccc3c(N)ncnn23)[C@H](OC(C)=O)[C@@H]1OC(C)=O)Oc1ccc(C23CC(C2)C3)cc1 (single isomer, unassigned) [Example 42a]
EC50 [1, 5]: 9.56 nM | EC50 [2, 6]: 68.3 nM | EC50 (SARS-CoV-2): 121 nM

CCOC(=O)[C@H](C)NP(=O)(OC[C@H]1O[C@@](C#N)(c2ccc3c(N)ncnn23)[C@H](OC(C)=O)[C@@H]1OC(C)=O)Oc1ccc(C23CC(C2)C3)cc1 (single isomer, unassigned) [Example 42b]
EC50 [1, 7]: 8 nM | EC50 [2]: 68.8 nM | EC50 (SARS-CoV-2): 51.3 nM

CCC(=O)O[C@H]1[C@@H](OC(=O)CC)[C@](C#N)(c2ccc3c(N)ncnn23)O[C@@H]1COP(=O)(N[C@@H](C)C(=O)OC1CC2(CCC2)C1)Oc1cccc2ccccc12 (single isomer, unassigned) [Example 87b]
EC50 [1, 5]: 7.36 nM | EC50 [2, 6]: 44.9 nM | EC50 (SARS-CoV-2): 16.3 nM | EC50 [3]: 8.3 nM

CCC(CC)COC(=O)[C@H](C)NP(=O)(OC[C@H]1O[C@@](C#N)(c2ccc3c(N)ncnn23)[C@H](O)[C@@H]1O)Oc1ccc(C(C)(C)C)c2ccccc12 (single isomer, unassigned) [Example 170a]
EC50 (SARS-CoV-2; [8]): 960 nM | EC50 [4, 9]: 1420 nM

CCC(CC)COC(=O)[C@H](C)NP(=O)(OC[C@H]1O[C@@](C#N)(c2ccc3c(N)ncnn23)[C@H](O)[C@@H]1O)Oc1ccc(C(C)(C)C)c2ccccc12 (single isomer, unassigned) [Example 170b]
EC50 (SARS-CoV-2): 923 nM | EC50 [4, 10]: 843 nM

CCC(CC)COC(=O)[C@H](C)NP(=O)(OC[C@H]1O[C@@](C#N)(c2ccc3c(N)ncnn23)[C@H](OC(C)=O)[C@@H]1OC(C)=O)Oc1ccc(C(C)(C)C)c2ccccc12 (single isomer, unassigned) [Example 171a]
EC50 (SARS-CoV-2): 931 nM | EC50 [4, 9]: 712 nM

CCC(CC)COC(=O)[C@H](C)NP(=O)(OC[C@H]1O[C@@](C#N)(c2ccc3c(N)ncnn23)[C@H](OC(C)=O)[C@@H]1OC(C)=O)Oc1ccc(C(C)(C)C)c2ccccc12 (single isomer, unassigned) [Example 171b]
EC50 (SARS-CoV-2): 415 nM | EC50 [4, 10]: 537 nM

CCC(=O)O[C@H]1[C@@H](OC(=O)CC)[C@](C#N)(c2ccc3c(N)ncnn23)O[C@@H]1COP(=O)(N[C@@H](C)C(=O)OCC(CC)CC)Oc1ccc(C(C)(C)C)c2ccccc12 (single isomer, unassigned) [Example 172a]
EC50 [4, 9]: 750 nM

CCC(=O)O[C@H]1[C@@H](OC(=O)CC)[C@](C#N)(c2ccc3c(N)ncnn23)O[C@@H]1COP(=O)(N[C@@H](C)C(=O)OCC(CC)CC)Oc1ccc(C(C)(C)C)c2ccccc12 (single isomer, unassigned) [Example 172b]
EC50 (SARS-CoV-2; [8]): 871 nM | EC50 [4, 10]: 610 nM

CCC(CC)COC(=O)[C@H](C)NP(=O)(OC[C@H]1O[C@@](C#N)(c2ccc3c(N)ncnn23)[C@H](OC(=O)C(C)C)[C@@H]1OC(=O)C(C)C)Oc1ccc(C(C)(C)C)c2ccccc12 (single isomer, unassigned) [Example 173a]
EC50 (SARS-CoV-2; [8]): 10000 nM | EC50 [4, 9]: 822 nM

CCC(CC)COC(=O)[C@H](C)NP(=O)(OC[C@H]1O[C@@](C#N)(c2ccc3c(N)ncnn23)[C@H](OC(=O)C(C)C)[C@@H]1OC(=O)C(C)C)Oc1ccc(C(C)(C)C)c2ccccc12 (single isomer, unassigned) [Example 173b]
EC50 [4, 10]: 765 nM

C[C@H](NP(=O)(OC[C@H]1O[C@@](C#N)(c2ccc3c(N)ncnn23)[C@H](O)[C@@H]1O)Oc1ccc(Cl)cc1)C(=O)OC1CCCCCCC1 (single isomer, unassigned) [Example 174a]
EC50 [4, 10]: 7.09 nM

C[C@H](NP(=O)(OC[C@H]1O[C@@](C#N)(c2ccc3c(N)ncnn23)[C@H](O)[C@@H]1O)Oc1ccc(Cl)cc1)C(=O)OC1CCCCCCC1 (single isomer, unassigned) [Example 174b]
EC50 [4, 10]: 62.8 nM

C[C@H](NP(=O)(OC[C@H]1O[C@@](C#N)(c2ccc3c(N)ncnn23)[C@H](O)[C@@H]1O)Oc1ccc(C(C)(C)C)cc1)C(=O)OC1CC(C)(C)C1 (stereo partly drawn) [Example 93, 3,3-dimethylcyclobutyl ((((2R,3S,4R,5R)-5-(4-aminopyrrolo[2,1-f][1,2,4]triazin-7-yl)-5-cyano-3,4-dihydroxytetrahydrofuran-2-yl)methoxy)(4-(tert-butyl)phenoxy)phosphoryl)-L-alaninate]
EC50 [1, 5]: 4.43 nM | EC50 [2, 6]: 67.6 nM | EC50 (SARS-CoV-2; [8]): 123 nM

CC(C)C(=O)O[C@H]1[C@@H](OC(=O)C(C)C)[C@](C#N)(c2ccc3c(N)ncnn23)O[C@@H]1COP(=O)(N[C@@H](C)C(=O)OCC1CC1)Oc1ccc(C(C)(C)C)cc1 (stereo partly drawn) [Example 104a, (2R,3R,4R,5R)-2-(4-aminopyrrolo[2,1-f][1,2,4]triazin-7-yl)-5-((((4-(tert-butyl)phenoxy)(((S)-1-(cyclopropylmethoxy)-1-oxopropan-2-yl)amino)phosphoryl)oxy)methyl)-2-cyanotetrahydrofuran-3,4-diyl bis(2-methylpropanoate)]
EC50 [1, 5]: 10.8 nM | EC50 [2, 6]: 39 nM | EC50 (SARS-CoV-2; [8]): 234 nM

CCC(C)(C)CCOC(=O)[C@H](C)NP(=O)(OC[C@H]1O[C@@](C#N)(c2ccc3c(N)ncnn23)[C@H](OC(C)=O)[C@@H]1OC(C)=O)Oc1ccccc1 (stereo partly drawn) [Example 106b, (2R,3R,4R,5R)-2-(4-aminopyrrolo[2,1-f][1,2,4]triazin-7-yl)-2-cyano-5-((((((S)-1-((3,3-dimethylpentyl)oxy)-1-oxopropan-2-yl)amino)(phenoxy)phosphoryl)oxy)methyl)tetrahydrofuran-3,4-diyl Diacetate]
EC50 [1, 5]: 12.2 nM | EC50 [2]: 34.2 nM | EC50 (SARS-CoV-2): 97.8 nM

COC(C)(C)COC(=O)[C@H](C)NP(=O)(OC[C@H]1O[C@@](C#N)(c2ccc3c(N)ncnn23)[C@H](OC(=O)C(C)C)[C@@H]1OC(=O)C(C)C)Oc1cccc2ccccc12 (stereo partly drawn) [Example 133, (2R,3R,4R,5R)-2-(4-aminopyrrolo[2,1-f][1,2,4]triazin-7-yl)-2-cyano-5-((((((S)-1-(2-methoxy-2-methylpropoxy)-1-oxopropan-2-yl)amino)(naphthalen-1-yloxy)phosphoryl)oxy)methyl)tetrahydrofuran-3,4-diyl bis(2-methylpropanoate)]
EC50 [1, 5]: 13.8 nM | EC50 [2, 6]: 33.6 nM | EC50 (SARS-CoV-2; [8]): 36.9 nM

CCC(CC)COC(=O)[C@H](C)NP(=O)(OC[C@H]1O[C@@](C#N)(c2ccc3c(N)ncnn23)[C@H](O)[C@@H]1O)Oc1ccc(C(C)(C)C)c2ccccc12 (stereo partly drawn) [Example 170, 2-ethylbutyl ((((2R,3S,4R,5R)-5-(4-aminopyrrolo[2,1-f][1,2,4]triazin-7-yl)-5-cyano-3,4-dihydroxytetrahydrofuran-2-yl)methoxy)((4-(tert-butyl)naphthalen-1-yl)oxy)phosphoryl)-L-alaninate]
EC50 [4, 9]: 1010 nM

CCC(CC)COC(=O)[C@H](C)NP(=O)(OC[C@H]1O[C@@](C#N)(c2ccc3c(N)ncnn23)[C@H](OC(=O)C(C)C)[C@@H]1OC(=O)C(C)C)Oc1ccc(C(C)(C)C)c2ccccc12 (stereo partly drawn) [Example 173, (2R,3R,4R,5R)-2-(4-aminopyrrolo[2,1-f][1,2,4]triazin-7-yl)-5-(((((4-(tert-butyl)naphthalen-1-yl)oxy)(((S)-1-(2-ethylbutoxy)-1-oxopropan-2-yl)amino)phosphoryl)oxy)methyl)-2-cyanotetrahydrofuran-3,4-diyl bis(2-methylpropanoate)]
EC50 [4, 9]: 798 nM

C[C@H](NP(=O)(OC[C@H]1O[C@@](C#N)(c2ccc3c(=N)n(COP(=O)(O)OCc4ccccc4)cnn23)[C@H](O)[C@@H]1O)Oc1cccc2ccccc12)C(=O)OC1CC2(CCC2)C1 (stereo partly drawn) [Example 176, spiro[3.3]heptan-2-yl ((((2R,3S,4R,5R)-5-(3-((((benzyloxy)(hydroxy)phosphoryl)oxy)methyl)-4-imino-3,4-dihydropyrrolo[2,1-f][1,2,4]triazin-7-yl)-5-cyano-3,4-dihydroxytetrahydrofuran-2-yl)methoxy)(naphthalen-1-yloxy)phosphoryl)-L-alaninate]
EC50 [4, 9]: 153 nM
